Assay results reported in patent EP2385818B1, “DIOLS AS ANTIPERSPIRANT AGENTS” (Beiersdorf Aktiengesellschaft, priority 2009, dated 2010).

Test system: schweißabgebenden Schweißdrüsen im Testareal
Assay: Sweat reduction on the forearm of volunteers, sweating induced at 75 °C, silicone imprint count of active sweat glands versus untreated area (following Keskin et al.)
Assay type: in vivo, Probanden
Details: for antitranspirant bzw. schweißhemmende Wirkung (Restschweißmenge im Vergleich zum unbehandelten Areal): forearm, after product application, result in words only; for AT-Wirkung, onset: measurable after the first application, no build-up by repeated application
Text: Die überraschende Antitranspirantwirksamkeit wurde in Studien zum AT-Wirkmechanismus der aromatischen Diole in wässrigen Systemen, unterschiedlichen Ölen und O/W-Emulsion untersucht (siehe Abbildung 1). In den Abbildungen ist die Restschweißmenge im Vergleich zum unbehandelten Areal nach Produktapplikation dargestellt. 100% Restschweißmenge entsprechen 0% Schweißreduktion. Die Schweißreduktion wurde in Anlehnung an M. Keskin et al. J. Invest. Dermatol. 1998; 110:591 gemessen. Bei den Messungen werden die Testsubstanzen auf dem Unterarm der Probanden angewendet. Die Probanden werden bei 75 °C zum Schwitzen angeregt; nach Beginn der Schweißproduktion wird mittels Silikonabdrucktechnik die Anzahl der schweißabgebenden Schweißdrüsen im Testareal ermittelt und gegen ein unbehandeltes Vergleichsareal abgeglichen.

Compound	antitranspirant bzw. schweißhemmende Wirkung (Restschweißmenge im Vergleich zum unbehandelten Areal)	AT-Wirkung, onset	AT-Leistung (preparation with up to 50 % Gew. in water, compared with preparation with 10 Gew.% Aluminiumchlorohydrat (Abbildung 1))
OCCCO [1,3-Propylenglykol]	antitranspirant bzw. schweißhemmende Wirkung	unmittelbare AT-Wirkung (Sofort-Effekt)	gute AT-Leistung
CC(O)CCO (centres unmarked) [1,3-Butylenglykol]	antitranspirant bzw. schweißhemmende Wirkung	unmittelbare AT-Wirkung (Sofort-Effekt)	
OCCC(O)c1ccccc1 (centres unmarked) [Phenyl-1,3-Propylenglykol]	schweißhemmende Wirkung		
CC(O)CC(C)O (centres unmarked) [2,4-Pentylenglykol]	antitranspirant bzw. schweißhemmende Wirkung	unmittelbare AT-Wirkung (Sofort-Effekt)	
CC(O)CCC(C)O (centres unmarked) [2,5 Hexandiol, 2,5-Hexandiol]	antitranspirant bzw. schweißhemmende Wirkung	unmittelbare AT-Wirkung (Sofort-Effekt)	
CC(O)C(O)c1ccccc1 (centres unmarked)	schweißhemmende Wirkung		
